These results are taken from article PMC11092195, “Selective Detection of Active Extracellular Granzyme A by Using a Novel Fluorescent Immunoprobe with Application to Inflammatory Diseases” (ACS Pharmacology & Translational Science, 2024).

Counter-ions that a name gives are not always drawn.

The target of this assay is T1, hGzmK (human GzmK) (Homo sapiens, UniProt P49863).
T1 construct: commercial, Enzo Life Sciences
T1 sequence (P49863 27-264): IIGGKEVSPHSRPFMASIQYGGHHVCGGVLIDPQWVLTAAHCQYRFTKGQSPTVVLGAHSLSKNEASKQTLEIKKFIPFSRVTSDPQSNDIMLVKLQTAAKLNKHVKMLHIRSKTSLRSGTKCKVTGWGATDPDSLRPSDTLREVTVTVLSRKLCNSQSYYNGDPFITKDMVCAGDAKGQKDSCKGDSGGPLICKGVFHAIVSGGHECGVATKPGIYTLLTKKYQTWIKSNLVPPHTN
The assay is described as follows: thioester hydrolysis with DTNB, used to normalise enzyme units. The following applies: Tris-HCl pH 8.5, 37 °C. Type of assay: biochemical.

Consider `NCCCC[C@H](NC(=O)OCc1ccccc1)C(=O)SCc1ccccc1` [Nα-CBZ-L-Lysine thiobenzyl ester hydrochloride], for which the “thioester hydrolysis with DTNB, used to normalise enzyme units” value was “activity of the different trypsin-like proteases was equated using a common substrate”.
